Results on one molecule are retold here after US5488049A, “Method of treating learning and memory disorders using benzothiadiazide derivatives as nootropic agents” (FIDIA - Georgetown Institute for the Neuro-Sciences, priority 1993, dated 1996).

Assay [1] relates to EPSCs elicited in CAl pyramidal neurons. Briefly: Excitatory postsynaptic currents (EPSCs) in CAl pyramidal neurons in hippocampal slices on stimulation of Schaffer collateral afferents. Type of assay: cell-based, rat. The procedure:
(§1) Young rats (12-16 days old) were decapitated and the brains quickly removed and placed in ice-cold Ringer solution. Thin slices of hippocampus (250 μm) were then cut with a vibratome slicer (Lancer, St. Louis, Mo.) and kept in Ringer solution at 37° C. until use. The experiments were carried out at room temperature with the slice totally submerged in a 1 ml volume recording chamber and under continuous perfusion with Ringer solution at a rate of 6 ml/min using an upright Hoffman modulation contrast microscope (Carl Zeiss, Germany) equipped with a 40×water immersion objective.
(§2) Ionic currents in whole-cell configuration and outside-out excised membrane patches were monitored using the patch clamp technique (15).
Traces were filtered at 3 KHz (-3 dB, 8-pole, lowpass Bessel filter, Frequency Devices), and stored in an LSI 11/73 computer (INDEC System, Sunnyvale, Calif.) after digitization (10 KHz) with a Data Translation analog to digital converter. Decay time constants of EPSC and glutamate-activated currents were determined from exponential fitting with the 11/73 system by using an entirely automated least-squares procedures (see Vicini and Schuetze, 1985, for further details). This method uses a Simplex algorithm (Caceci and Cacheris, 1984) to fit the data to either a single or double exponential equation of the form I(t)=If exp(-t/tauf)+Is exp(-t/taus), where If and Is are the amplitudes of the sIPSC fast and slow components, and tauf and taus are their respective decay time constants. Peak amplitudes were measured at the absolute maximum of the currents, taking into account the noise of the baseline and noise around the peak. Rise times were measured as the time elapsed from 20 to 80% of the peak amplitude of the response.
The action of nootropic drugs on the excitatory postsynaptic currents (EPSCs) elicited in CAl pyramidal neurons in hippocampal slices was investigated by stimulation of the Schaffer collateral afferents.

In assay [2] the test system is rats. Briefly: Water maze: drug action on learning and retention in rats. Type of assay: in vivo, rat. The procedure: Rats (male, 250 g) were trained once a day in maze A (See FIG. 8B forced maze) for 2 consecutive days. The day of the experiment, after a first exposure to maze A, IDRA 21 (15 mg/kg) Aniracetam (500 mg/kg) or vehicle (cont) were administered per oral gavage and 30 min later the animals were exposed once again to Maze A. After 30 min of interatrial rest, rats were exposed to Maze B (see FIG. 8C open maze).
(§3) The water maze apparatus was adapted from Kant et al., (16), and consists of three concentric squares placed inside a 5 ft plastic pool (FIG. 6). The walls of the maze are 50 cm in height and are constructed from black opaque plastic to allow for tracking of the animal with an overhead camera. The alleys between the walls are 16 cm wide. In the center of each wall there is a removable doorway. The opening of doorways allows for the construction of mazes with an increasing number of potential error possibilities. (See diagram for Maze A and Maze B, FIG. 6). The maze is located in a room 10'×15' at constant temperature (18° C.) adjacent to the vivarium. The room is illuminated with overhead lights which also serve as spatial cues. Additional spatial cues are provided by the position of the investigator and a number of small white x's placed within specific locations upon the walls of the maze. The maze is filled with water (18°)C. to a depth of 25 cm.
(§4) Seven days prior to drug studies, rats were tested in Maze A (forced maze) on two consecutive days. Pretesting with the "forced" maze enabled the assessment of the animals' general motor, sensory and motivational abilities, and facilitated the exclusion of those animals unable to meet pretesting criteria. Performance was assessed by determining either swim time, errors committed, or path length measured with a computerized recording device. Errors are defined as whole body entry into alleys not leading directly to the exit platform (i.e., shaded portions in FIG. 6). Rats were excluded from the study if their swim path length and/or number of errors were two standard deviations above the mean […] of the entire group. During the first two trials, the rats were placed into the center of the maze and given a maximum of 180 secs to find the "exit platform" located at the "finish" (FIG. 6). The time required, the number of errors, and the path length were recorded for each trial. […] Rats meeting the criteria were randomly divided into groups. On the day of the experiment, a single trial was run (Maze A) in order to establish a baseline of performance. Following drug administration, the rats were again tested once on Maze A to establish a baseline of post-treatment performance. Following an additional interatrial interval of 30 min., the rats were tested on Maze B.

The test system of assay [3] is rats. The experiment in a line: Water maze: drug action on alprazolam-disrupted learning behavior in rats. Type of assay: in vivo, rat. The note with it: IDRA 21 10 mg/kg os, 30 min pretreatment; alprazolam 1.5 mg/kg i.p. The procedure:
Rats (male 250 g b.w.) were trained two days, once a day, in maze A (See insert A). […] Rats were exposed to a new maze configuration (Maze B) in 4 successive trials 15, 30, 45, and 60 min after the i.p. injections.
as §3, §4
In these experiments, rats were trained in Maze B 15, 30, 45 and 60 min. after drug injection.

For assay [4], the system named is kainate-activated current. Briefly: Selectivity: ionic current elicited by 20 μM kainate. The assay is classed as cell-based, rat. The method, then: as §1
Media and drug application. The external Ringer solution contained (in mM): NaCl 120; KCl 3.1; CaCl2 2; MgCl2 1; KH2 PO4 1; NaHCO3 26; glucose 2.7; and it was continuously bubbled with 95% O2 and 5% CO2. Patch pipettes were filled with a solution containing (in mM): K-gluconate 140; MgCl2 1; ATP.Mg 2; EGTA 0.5; HEPES-KOH 10, pH 7.2. All the drugs under investigation were applied through the recording chamber perfusion system via parallel inputs having a common entry into the chamber. Agonist application was attained using two different systems that allowed a slow or a rapid solution change. Slow solution changes were used during recordings in whole-cell configuration and were obtained by exchanging the solution of the recording chamber within a few seconds. Fast solution changes were obtained with the use of the Y-shaped tubing method that allows complete exchange of solution in less than 10 ms, and is described in detail by Murase et al. (1989).
as §2

Entries after “also recorded” stand apart in the source; their conditions may differ.

In the case of `CC1Nc2ccc(Cl)cc2S(=O)(=O)N1` (racemic) [IDRA 21, 7-chloro-3-methyl-3,4-dihydro-2H 1,2,4-benzothiadiazine S-S dioxide], in assay [1] (Rattus norvegicus, Pyramidal neuron, read-out: efficacy in increasing delay time of AMPA current (EPSC) relative to diazoxide), the Emax at 1000 µM was found to be 300%. Further, the Emax in assay [1] (Rattus norvegicus, Pyramidal neuron, read-out: response relative to diazoxide (electrophysiology summary)) was 300%. Further, the “response relative to aniracetam (electrophysiology summary)” value in assay [1] (summary statement) was “one order of magnitude larger than that of aniracetam”. In addition, the “efficacy in improving water maze performance of trained rats, vs aniracetam” value in assay [2] (0.2 μmol icv vs aniracetam 1.8 μmol icv) was “at least as efficacious as aniracetam”. Moreover, the “performance in water maze (errors and time, Maze B)” value in assay [2] (15 mg/kg os) was “significantly improves the performance of rats, reducing the number of errors and the time interval in accomplishing the task in Maze B”. Besides, the “improvement of water maze performance” value in assay [2] (FIG. 8A, IDRA 21 15 mg/kg, Aniracetam 500 mg/kg oral) is on record as “improve water performance in rats”. The “significance (P) of water maze performance vs control” value in assay [2] (IDRA 21 15 mg/kg, Aniracetam 500 mg/kg per oral gavage, at least 5 rats) is below 0.05. For the same molecule, in assay [2] (racemic form, naive rats and rats with alprazolam-disrupted learning), the “potency vs aniracetam in potentiating learning and enhancing cognitive performance” value is given as “at least an order of magnitude more potent than aniracetam”. Further, in assay [3], the “antagonism of alprazolam amnesic effect” value is “reduces the amnesic effect of alprazolam; also recorded: attenuates the learning disruptive effect of Alprazolam”. The “effect on kainate-activated current” value in assay [4] (1 mM compound, 20 μM kainate) is reported as “failed to potentiate the kainate-activated current”. In assay [4] (all doses that decrease/inhibit AMPA desensitization), the “effect on kainate responses at doses that decreased AMPA desensitization” value is “failed to affect kainate responses”.
